These compounds were tested against T1, Microsomal triglyceride transfer protein (MTP) from human small intestine microsome (Homo sapiens, UniProt P55157) (assay: Inhibition test of interliposomal triglyceride (TG) transfer activity by MTP). Settings: purified MTP from human small intestine microsome, 37° C., 1.5 hours.
T1 construct: Human small intestine microsome was dialyzed against 10 mM phosphate buffer; tissue Tissue Transforming Technologies, Inc; host or cells: human small intestine microsome
T1 sequence (P55157 19-894): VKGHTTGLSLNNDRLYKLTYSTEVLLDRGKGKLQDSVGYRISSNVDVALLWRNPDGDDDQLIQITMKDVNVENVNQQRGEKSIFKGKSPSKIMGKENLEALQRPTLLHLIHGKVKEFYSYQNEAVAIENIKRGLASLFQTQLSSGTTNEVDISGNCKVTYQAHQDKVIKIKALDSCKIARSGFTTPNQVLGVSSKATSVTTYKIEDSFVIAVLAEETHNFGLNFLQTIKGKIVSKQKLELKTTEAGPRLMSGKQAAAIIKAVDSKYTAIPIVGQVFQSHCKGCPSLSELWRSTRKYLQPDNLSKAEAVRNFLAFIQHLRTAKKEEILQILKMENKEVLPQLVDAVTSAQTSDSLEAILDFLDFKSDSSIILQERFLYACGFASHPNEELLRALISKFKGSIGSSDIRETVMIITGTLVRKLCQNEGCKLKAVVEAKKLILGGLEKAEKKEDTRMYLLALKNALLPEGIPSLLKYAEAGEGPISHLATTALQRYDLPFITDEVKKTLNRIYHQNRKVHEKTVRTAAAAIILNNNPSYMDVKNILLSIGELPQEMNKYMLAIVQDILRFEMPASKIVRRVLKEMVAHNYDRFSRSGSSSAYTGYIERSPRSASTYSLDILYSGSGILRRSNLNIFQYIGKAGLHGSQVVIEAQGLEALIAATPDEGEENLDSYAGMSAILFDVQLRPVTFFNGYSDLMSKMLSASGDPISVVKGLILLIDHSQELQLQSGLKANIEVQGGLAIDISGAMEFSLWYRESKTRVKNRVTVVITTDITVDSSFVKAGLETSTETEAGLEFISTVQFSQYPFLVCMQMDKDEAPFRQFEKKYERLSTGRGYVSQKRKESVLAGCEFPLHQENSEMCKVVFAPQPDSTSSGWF
T1 sequence (P07237 18-508 partner): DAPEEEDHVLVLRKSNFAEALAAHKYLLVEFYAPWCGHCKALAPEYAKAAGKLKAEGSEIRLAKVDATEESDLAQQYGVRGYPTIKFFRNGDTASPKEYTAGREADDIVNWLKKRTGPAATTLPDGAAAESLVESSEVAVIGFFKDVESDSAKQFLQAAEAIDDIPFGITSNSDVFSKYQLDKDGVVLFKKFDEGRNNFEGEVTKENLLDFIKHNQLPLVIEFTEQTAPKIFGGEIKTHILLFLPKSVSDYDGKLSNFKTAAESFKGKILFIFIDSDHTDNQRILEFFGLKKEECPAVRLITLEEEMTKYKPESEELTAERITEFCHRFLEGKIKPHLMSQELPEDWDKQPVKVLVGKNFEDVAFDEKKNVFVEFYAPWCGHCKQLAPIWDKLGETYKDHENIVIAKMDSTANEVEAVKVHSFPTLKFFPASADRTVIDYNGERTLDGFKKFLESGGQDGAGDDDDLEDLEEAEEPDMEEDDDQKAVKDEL
Format: biochemical
In short: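 DEAE-purified human small intestine MTP (50 μL of 20 μg/mL) incubated 1.5 hours at 37° C with ^14C-triolein donor and unlabelled acceptor SUV liposomes in pH 7.4 Tris buffer with 0.5% BSA. Donor removed on DEAE cellulose; acceptor radioactivity counted, blank-corrected against DMSO control, giving percent inhibition and IC50.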
In the case of `CN(C)C(=O)c1cc(CCCC(=O)Oc2ccc(C(=O)OCc3ccsc3)cc2)ccc1NC(=O)c1ccccc1-c1ccc(C(F)(F)F)cc1` [Compound 1-99, 4-[4-(3-dimethylcarbamoyl-4-{(4′-trifluoromethylbiphenyl-2-carbonyl)amino}phenyl)butyryloxy]benzoic acid thiophen-3-ylmethyl ester], the IC50 is reported as under 10 nM. `COc1cc(C(=O)OCCNC(C)=O)cc(Cl)c1OC(=O)CCCc1ccc(NC(=O)c2ccc(C)nc2-c2ccc(C(F)(F)F)cc2)c(C(=O)N(C)C)c1` [Compound 1-114, 3-chloro-4-[4-(3-dimethylcarbamoyl-4-{[6-methyl-2-(4-trifluoromethylphenyl)pyridine-3-carbonyl]amino}phenyl)butyryloxy]-5-methoxybenzoic acid 2-acetylaminoethyl ester] gave an IC50 of under 10 nM. `CCOC(=O)c1cc(OC)c(OC(=O)CCCc2ccc(NC(=O)c3ccc(C)nc3-c3ccc(C(F)(F)F)cc3)c(C(=O)N(C)C)c2)c(OC)c1` [Compound 1-43, 4-[4-(3-dimethylcarbamoyl-4-{[6-methyl-2-(4-trifluoromethylphenyl)pyridine-3-carbonyl]amino}phenyl)butyryloxy]-3,5-dimethoxybenzoic acid ethyl ester] showed an IC50 of under 10 nM. Compound `CN(C)C(=O)c1cc(CC(=O)Oc2ccccc2)ccc1NC(=O)c1ccccc1-c1ccc(C(F)(F)F)cc1` [Compound 1-3, {3-dimethylcarbamoyl-4-[(4′-trifluoromethylbiphenyl-2-carbonyl)amino]phenyl}acetic acid phenyl ester] has an IC50 of 100 to 1000 nM. Compound `COC(=O)c1ccc(-c2nc(C)ccc2C(=O)Nc2ccc(CCCC(=O)Oc3c(Cl)cc(C(=O)OC)cc3OC)cc2C(=O)N(C)C)cc1` [Compound 4-4, 3-chloro-4-[4-(3-dimethylcarbamoyl-4-{[2-(4-methoxycarbonylphenyl)-6-methylpyridine-3-carbonyl]amino}phenyl)butyryloxy]-5-methoxybenzoic acid methyl ester] has an IC50 of under 10 nM. Work on `COC(=O)c1ccc(OC(=O)CCCc2ccc(NC(=O)c3ccccc3-c3ccc(C(F)(F)F)cc3)c(C(=O)N(C)C)c2)c(C(=O)OC)c1` [Compound 1-33, 4-(4-{3-dimethylcarbamoyl-4-[(4′-trifluoromethylbiphenyl-2-carbonyl)amino]phenyl}butyryloxy)isophthalic acid dimethyl ester] yielded an IC50 of under 10 nM. `COC(=O)c1ccc(OC(=O)CCCc2ccc(NC(=O)c3ccccc3-c3ccc(C(F)(F)F)cc3)c(C(=O)N3CCOCC3)c2)cc1` [Compound 1-26, 4-(4-{3-(morpholine-4-carbonyl)-4-[(4′-trifluoromethylbiphenyl-2-carbonyl)amino]phenyl}butyryloxy)benzoic acid methyl ester] gave an IC50 of 10 to 100 nM. Compound `CCc1cc(C(=O)OC)ccc1OC(=O)CCCc1ccc(NC(=O)c2ccccc2-c2ccc(C(F)(F)F)cc2)c(C(=O)N(C)C)c1` [Compound 1-67, 4-[4-(3-dimethylcarbamoyl-4-{(4′-trifluoromethylbiphenyl-2-carbonyl)amino}phenyl)butyryloxy]-3-ethylbenzoic acid methyl ester] has an IC50 of under 10 nM. `CCOC(=O)c1ccc(OC(=O)CCCc2ccc(NC(=O)c3ccccc3-c3ccc(C(F)(F)F)cc3)c(C(=O)N(C)C)c2)cc1` [Compound 1-6, 4-(4-{3-dimethylcarbamoyl-4-[(4′-trifluoromethylbiphenyl-2-carbonyl)amino]phenyl}butyryloxy)benzoic acid ethyl ester] gave an IC50 of under 10 nM. With `CN(C)C(=O)c1cc(CCCC(=O)Oc2ccc(C(=O)OCCOCc3ccccc3)cc2)ccc1NC(=O)c1ccccc1-c1ccc(C(F)(F)F)cc1` [Compound 1-89, 4-[4-(3-dimethylcarbamoyl-4-{(4′-trifluoromethylbiphenyl-2-carbonyl)amino}phenyl)butyryloxy]benzoic acid 2-benzyloxyethyl ester] the IC50 was under 10 nM. `CC(=O)N1CCC(OC(=O)c2ccc(OC(=O)CCCc3ccc(NC(=O)c4ccccc4-c4ccc(C(F)(F)F)cc4)c(C(=O)N(C)C)c3)cc2)CC1` [Compound 1-109, 4-[4-(3-dimethylcarbamoyl-4-{(4′-trifluoromethylbiphenyl-2-carbonyl)amino}phenyl)butyryloxy]benzoic acid 1-acetylpiperidin-4-yl ester] showed an IC50 of under 10 nM. `COC(=O)c1cc(C)c(OC(=O)CCCc2ccc(NC(=O)c3ccc(C)nc3-c3ccc(C(F)(F)F)cc3)c(C(=O)N(C)C)c2)c(Cl)c1` [Compound 1-35, 3-chloro-4-[4-(3-dimethylcarbamoyl-4-{[6-methyl-2-(4-trifluoromethylphenyl)pyridine-3-carbonyl]amino}phenyl)butyryloxy]-5-methylbenzoic acid methyl ester] was tested, and the IC50 was under 10 nM. `COC(=O)c1ccc(OC(=O)CCCc2ccc(NC(=O)c3ccccc3-c3ccc(C(=O)OC)cc3)c(C(=O)N(C)C)c2)cc1` [Compound 4-3, 2′-{2-dimethylcarbamoyl-4-[3-(4-methoxycarbonylphenoxycarbonyl)propyl]phenyl-carbamoyl}biphenyl-4-carboxylic acid methyl ester] showed an IC50 of under 10 nM. In the case of `COC(=O)c1ccc(OC(=O)CCCc2ccc(NC(=O)c3ccccc3-c3ccc(C(F)(F)F)cc3)c(C(=O)N(C)C)c2)cc1C` [Compound 1-14, 4-(4-{3-dimethylcarbamoyl-4-[(4′-trifluoromethylbiphenyl-2-carbonyl)amino]phenyl}butyryloxy)-2-methyl benzoic acid methyl ester], the IC50 is reported as under 10 nM. Compound `CCCOC(=O)c1ccc(OC(=O)CCCc2ccc(NC(=O)c3ccccc3-c3ccc(C(F)(F)F)cc3)c(C(=O)N(C)C)c2)cc1` [Compound 1-8, 4-(4-{3-dimethylcarbamoyl-4-[(4′-trifluoromethylbiphenyl-2-carbonyl)amino]phenyl}butyryloxy) benzoic acid propyl ester] has an IC50 of under 10 nM. With `CC(C)n1nnc(-c2ccc(OC(=O)CCCc3ccc(NC(=O)c4ccccc4-c4ccc(C(F)(F)F)cc4)c(C(=O)N(C)C)c3)cc2)n1` [Compound 1-115, 4-(3-dimethylcarbamoyl-4-{(4′-trifluoromethylbiphenyl-2-carbonyl)amino}phenyl)butyric acid 4-(2-isopropyl-2H-tetrazol-5-yl)phenyl ester] the IC50 was under 10 nM. In the case of `CN(C)C(=O)Cn1nnc(-c2ccc(OC(=O)CCCc3ccc(NC(=O)c4ccccc4-c4ccc(C(F)(F)F)cc4)c(C(=O)N(C)C)c3)cc2)n1` [Compound 1-105, 4-(3-dimethylcarbamoyl-4-{(4′-trifluoromethylbiphenyl-2-carbonyl)amino}phenyl)butyric acid 4-(2-dimethylcarbamoylmethyl-2H-tetrazol-5-yl)phenyl ester], the IC50 is reported as under 10 nM. With `CCOC(=O)c1cc(Cl)c(OC(=O)CCCc2ccc(NC(=O)c3ccc(C)nc3-c3ccc(C(F)(F)F)cc3)c(C(=O)N(C)C)c2)c(OC)c1` [Compound 1-48, 3-chloro-4-[4-(3-dimethylcarbamoyl-4-{[6-methyl-2-(4-trifluoromethylphenyl)pyridine-3-carbonyl]amino}phenyl)butyryloxy]-5-methoxybenzoic acid ethyl ester] the IC50 was under 10 nM. With `CCOc1cc(C(=O)OC)cc(Cl)c1OC(=O)CCCc1ccc(NC(=O)c2ccc(C)nc2-c2ccc(C(F)(F)F)cc2)c(C(=O)N(C)C)c1` [Compound 1-40, 3-chloro-4-[4-(3-dimethylcarbamoyl-4-{[6-methyl-2-(4-trifluoromethylphenyl)pyridine-3-carbonyl]amino}phenyl)butyryloxy]-5-ethoxybenzoic acid methyl ester] the IC50 was under 10 nM. With `CN(C)C(=O)c1cc(CCCC(=O)Oc2ccc(-c3nnn(CC(=O)OCc4ccccc4)n3)cc2)ccc1NC(=O)c1ccccc1-c1ccc(C(F)(F)F)cc1` [Compound 1-104, 4-(3-dimethylcarbamoyl-4-{(4′-trifluoromethylbiphenyl-2-carbonyl)amino}phenyl)butyric acid 4-(2-benzyloxycarbonylmethyl-2H-tetrazol-5-yl)phenyl ester] the IC50 was under 10 nM. Work on `CN(C)C(=O)c1cc(CCCC(=O)Oc2ccc(C(=O)O)cc2)ccc1NC(=O)c1ccccc1-c1ccc(C(F)(F)F)cc1` [Compound 1-25, 4-(4-{3-dimethylcarbamoyl-4-[(4′-trifluoromethylbiphenyl-2-carbonyl)amino]phenyl}butyryloxy) benzoic acid] yielded an IC50 of 100 to 1000 nM. Compound `Cc1ccc(C(=O)Nc2ccc(CCCC(=O)Oc3ccc(C(=O)OCc4ccccc4)cc3)cc2C(=O)N(C)C)c(-c2ccc(C(F)(F)F)cc2)n1` [Compound 1-80, 4-[4-(3-dimethylcarbamoyl-4-{[6-methyl-2-(4-trifluoromethylphenyl)pyridine-3-carbonyl]amino}phenyl)butyryloxy]benzoic acid benzyl ester] has an IC50 of under 10 nM. With `Cc1cccc(COC(=O)c2ccc(OC(=O)CCCc3ccc(NC(=O)c4ccccc4-c4ccc(C(F)(F)F)cc4)c(C(=O)N(C)C)c3)cc2)n1` [Compound 1-101, 4-[4-(3-dimethylcarbamoyl-4-{(4′-trifluoromethylbiphenyl-2-carbonyl)amino}phenyl)butyryloxy]benzoic acid 6-methylpyridin-2-ylmethyl ester] the IC50 was under 10 nM. With `COC(=O)c1ccc(OC(=O)CCCc2ccc(NC(=O)c3ccccc3-c3ccc(C(F)(F)F)cc3)c(C(=O)N(C)C)c2)cc1OC` [Compound 1-17, 4-(4-{3-dimethylcarbamoyl-4-[(4′-trifluoromethylbiphenyl-2-carbonyl)amino]phenyl}butyryloxy)-2-methoxybenzoic acid methyl ester] the IC50 was 10 to 100 nM. `COC(=O)c1ccc(OC(=O)CN(C)Cc2ccc(NC(=O)c3ccccc3-c3ccc(C(F)(F)F)cc3)c(C(=O)N(C)C)c2)cc1` [Compound 2-1, 4-[2-({3-dimethylcarbamoyl-4-[(4′-trifluoromethylbiphenyl-2-carbonyl)amino]benzyl}methylamino)acetoxy]benzoic acid methyl ester] gave an IC50 of 10 to 100 nM.
